Experiments:
Assay in all cases: Labeling of cancer and non-cancer cells, fluorescence signal ratio
Format in all cases: cell-based, human
RS4 (vs Lymphocytes T) = conditions: RS4 (35 h) vs Lymphocytes T (24 h); Ara-N3 10 mM; FBS 10%; one doubling time
Method: (§1) The fluorescence Assimilation of Ara-N3 probes was visualized by copper-free click chemistry using sulfo-DBCO-biotin (1 mM), followed by labeling with a mouse anti-biotin Alexa Fluor 488 antibody conjugate (0.62 mg/ml stock, Jackson ImmunoResearch, dilution 1/10). The click reaction was carry-out as following: At 24 h incubation times, the culture mediums were removed, and attached cells were washed twice with PBS. Cells were detached with Tryp-LE, washed twice with PBS, and centrifuged at 13000 g for 2 min. The cellular pellets were resuspended with 10 μL of sulfo-DBCO-biotin and incubated 30 min in the dark, and at 37 C°. Then, cells were washed twice with PBS, centrifuged, and cellular pellets were resuspended with 10 μL of a mouse anti-biotin antibody solution, before to be incubated at room temperature in dark. Thereafter, cells were washed twice with PBS and small cellular suspension spots (5 μL) were put in Polysine® adhesion slides (VWR international S.A.S), in the dark room, until dry (20 min). The spots were fixed with 4% paraformaldehyde during 20 min, in dark and room temperature. Slides were then washed twice with PBS, before recovering with square cover glasses (VWR international S.A.S) using glycerol Mounting Medium (Dako) and stored at 4° C. in dark room.
(§2) The fluorescence acquisition was recorded using Olympus Microscopy IX83 (Olympus Life Science) equipped with a 60×/1.3 […]/1.4 SRI (silicone refractive index) objective, and Hamamatsu oreca flash 4 LT camera with 109 nm/pixel calibrated pixel size. The excitation light was emitted by X-CITE 120LED using the AT180/30X excited filter and signal was monitored using AT535/40m emission filter. Green light exposition time was 600 ms and white light exposition time was determined by DIC methods at […]. The acquisition area size analyzed by the Celisens dimension V1.16 software was different depending on the cell number containing in the spot.
(§3) The images were processed using count and measure unit of the Cellsens dimension V1.16 software. The background noise was deleted as follows: ROI were first defined on the background of the image and the average pixel intensity was calculated. The value thus obtained was subtracted from all pixels of the image. The fluorescence intensity of each cell was determined from a threshold set at a value of 3030. All pixels that have intensity below 3030 were not counted.
(§4) The same experiments as in example 2 with other cancer and corresponding non cancer cells were performed. The culture media were adapted to the tested cells and supplemented by 10% fetal bovine serum (FBS). Ara-N3 probe (10 mM) was added to culture media with FBS concentration (10%). The incubation times corresponded to one doubling time or twice doubling time of the tested cells (see table below).
(§5) The fluorescence signal cancer/non cancer ratios were calculated based on fluorescence intensities obtained with Ara-N3 tested on cancer and corresponding non cancer cells.

Kasumi-1 (vs B12-F8) = conditions: Kasumi-1 (48 h) vs B12-F8 (24 h); Ara-N3 10 mM; FBS 10%; one doubling time
Method: as §1, §2, §3, §4, §5

[1] = test system: AGS (vs Stomach epitelial cell); conditions: AGS (doubling time 30 h) vs Stomach epitelial cell (30 h); Ara-N3 10 mM; FBS 10%; test at 2 doubling time
Method: as §1, §2, §3, §4, §5

[2] = test system: SU-DHL-4 (vs Isolated primary B cells); conditions: SU-DHL-4 (40 h) vs Isolated primary B cells; Ara-N3 10 mM; FBS 10%
Method: as §1, §2, §3, §4, §5

[3] = test system: OCI-Ly10 (vs Isolated primary B cells); conditions: OCI-Ly10 (24 h) vs Isolated primary B cells; Ara-N3 10 mM; FBS 10%
Method: as §1, §2, §3, §4, §5

SK-BR-7 (vs HME-1) = conditions: SK-BR-7 (30 h) vs HME-1 (30 h); Ara-N3 10 mM; FBS 10%; one doubling time
Method: as §1, §2, §3, §4, §5

MDA MB175 (vs HME-1) = conditions: MDA MB175 (30 h) vs HME-1 (30 h); Ara-N3 10 mM; FBS 10%; one doubling time
Method: as §1, §2, §3, §4, §5

A431 (vs Hacat) = conditions: A431 (30 h) vs Hacat (30 h); Ara-N3 10 mM; FBS 10%; one doubling time
Method: as §1, §2, §3, §4, §5

[4] = test system: BL-2 (vs Isolated primary B cells); conditions: BL-2 (24 h) vs Isolated primary B cells; Ara-N3 10 mM; FBS 10%
Method: as §1, §2, §3, §4, §5

[5] = test system: OCI-Ly3 (vs Isolated primary B cells); conditions: OCI-Ly3 (24 h) vs Isolated primary B cells; Ara-N3 10 mM; FBS 10%
Method: as §1, §2, §3, §4, §5

[6] = test system: A549 (vs Bronchial epithelial cell); conditions: A549 (doubling time 40 h) vs Bronchial epithelial cell (40 h); Ara-N3 10 mM; FBS 10%; test at 2 doubling time
Method: as §1, §2, §3, §4, §5

MDA MB453 (vs HME-1) = conditions: MDA MB453 (30 h) vs HME-1 (30 h); Ara-N3 10 mM; FBS 10%; one doubling time
Method: as §1, §2, §3, §4, §5

[7] = test system: DOHH-2 (vs Isolated primary B cells); conditions: DOHH-2 (40-48 h) vs Isolated primary B cells; Ara-N3 10 mM; FBS 10%
Method: as §1, §2, §3, §4, §5

[8] = test system: MDA-MB-231 (vs Breast epithelial cell); conditions: MDA-MB-231 (doubling time 40 h) vs Breast epithelial cell (40 h); Ara-N3 10 mM; FBS 10%; test at 2 doubling time
Method: as §1, §2, §3, §4, §5

[9] = test system: HT29 (vs Colon epithelial cell); conditions: HT29 (doubling time 40 h) vs Colon epithelial cell (40 h); Ara-N3 10 mM; FBS 10%; test at 2 doubling time
Method: as §1, §2, §3, §4, §5

K562 (vs Lymphocytes T) = conditions: K562 (24 h) vs Lymphocytes T (24 h); Ara-N3 10 mM; FBS 10%; one doubling time
Method: as §1, §2, §3, §4, §5

[N-]=[N+]=NC[C@H]1OC(O)[C@@H](O)[C@@H]1O (stereo partly drawn) [Ara-N3, 5-azido-5-deoxy-D-arabinofuranose]
Cancer/Non Cancer Ratio (fluorescence signal) (RS4 (vs Lymphocytes T)): 1.6
Cancer/Non Cancer Ratio (fluorescence signal) (Kasumi-1 (vs B12-F8)): 1.5
Cancer/Non Cancer Ratio (fluorescence signal) [1]: 2.9
Cancer/Non Cancer Ratio (fluorescence signal) [2]: 2.5
Cancer/Non Cancer Ratio (fluorescence signal) [3]: 2.1
Cancer/Non Cancer Ratio (fluorescence signal) (SK-BR-7 (vs HME-1)): 2.1
Cancer/Non Cancer Ratio (fluorescence signal) (MDA MB175 (vs HME-1)): 2
Cancer/Non Cancer Ratio (fluorescence signal) (A431 (vs Hacat)): 17.5
Cancer/Non Cancer Ratio (fluorescence signal) [4]: 2.5
Cancer/Non Cancer Ratio (fluorescence signal) [5]: 6.2
Cancer/Non Cancer Ratio (fluorescence signal) [6]: 7.7
Cancer/Non Cancer Ratio (fluorescence signal) (MDA MB453 (vs HME-1)): 2.2
Cancer/Non Cancer Ratio (fluorescence signal) [7]: 7.4
Cancer/Non Cancer Ratio (fluorescence signal) [8]: 2.5
Cancer/Non Cancer Ratio (fluorescence signal) [9]: 13.2
Cancer/Non Cancer Ratio (fluorescence signal) (K562 (vs Lymphocytes T)): 1.6
